Activity calls are given as the source filed them.
Tests used:
[1] = target: Genome polyprotein (dengue virus type 2, UniProt P29990); assay: Dengue-2 NS5 methyltransferase inhibitors, primary screen, biochemical, confirmation dose response (AID 588689); format: functional
[2] = tested on: Vero; assay: Vero cell cytotoxicity, cytotoxicity control for flavivirus capping enzyme inhibitors (AID 588742); format: functional; conditions: Chlorocebus sabaeus
[3] = target: T1, Replicative DNA helicase DnaB (Mycobacterium tuberculosis, UniProt P9WMR3); assay: DnaB intein splicing inhibitors, dose response, biochemical, cell-free fluorescence (AID 449749); format: functional
T1 sequence (P9WMR3 whole entry): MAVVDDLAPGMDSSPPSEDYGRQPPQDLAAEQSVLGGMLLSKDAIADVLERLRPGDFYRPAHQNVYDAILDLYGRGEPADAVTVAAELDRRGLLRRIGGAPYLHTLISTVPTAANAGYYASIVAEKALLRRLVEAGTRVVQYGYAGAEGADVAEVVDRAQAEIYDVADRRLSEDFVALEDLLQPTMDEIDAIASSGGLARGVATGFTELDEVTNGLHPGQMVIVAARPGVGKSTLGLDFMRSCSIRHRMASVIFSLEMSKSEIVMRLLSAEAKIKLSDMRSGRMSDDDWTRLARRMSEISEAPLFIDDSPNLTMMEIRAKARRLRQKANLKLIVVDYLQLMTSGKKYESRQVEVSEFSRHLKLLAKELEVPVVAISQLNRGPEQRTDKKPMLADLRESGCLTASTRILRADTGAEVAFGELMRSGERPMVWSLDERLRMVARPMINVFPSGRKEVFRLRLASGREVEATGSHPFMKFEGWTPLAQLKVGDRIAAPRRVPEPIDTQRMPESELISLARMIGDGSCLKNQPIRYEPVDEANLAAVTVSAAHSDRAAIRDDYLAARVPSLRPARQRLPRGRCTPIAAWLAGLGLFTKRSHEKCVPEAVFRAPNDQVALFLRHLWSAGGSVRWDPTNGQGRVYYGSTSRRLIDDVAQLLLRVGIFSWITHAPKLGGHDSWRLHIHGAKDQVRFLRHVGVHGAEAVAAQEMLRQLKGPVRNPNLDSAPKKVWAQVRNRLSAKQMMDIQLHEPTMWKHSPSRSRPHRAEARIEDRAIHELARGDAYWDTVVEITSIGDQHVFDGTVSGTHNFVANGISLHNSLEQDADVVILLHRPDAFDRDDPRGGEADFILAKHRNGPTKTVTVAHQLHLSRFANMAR

[4] = control 3'UTR Renilla luciferase suppression, dose response, counter-screen for Shn3 inhibitor project, cell-based, Clone20-Shn3RL, cherry-picked (AID 624133); format: functional
[5] = target: Potassium voltage-gated channel subfamily KQT member 2 (Rattus norvegicus, UniProt O88943, W236L); assay: KCNQ2 channel potentiators, dose response, mechanism study for KCNQ2 potentiator project, cell-based, automated electrophysiology (AID 2603); format: functional
Sequence of Potassium voltage-gated channel subfamily KQT member 2 (O88943 whole entry W236L, the tested form may be a part): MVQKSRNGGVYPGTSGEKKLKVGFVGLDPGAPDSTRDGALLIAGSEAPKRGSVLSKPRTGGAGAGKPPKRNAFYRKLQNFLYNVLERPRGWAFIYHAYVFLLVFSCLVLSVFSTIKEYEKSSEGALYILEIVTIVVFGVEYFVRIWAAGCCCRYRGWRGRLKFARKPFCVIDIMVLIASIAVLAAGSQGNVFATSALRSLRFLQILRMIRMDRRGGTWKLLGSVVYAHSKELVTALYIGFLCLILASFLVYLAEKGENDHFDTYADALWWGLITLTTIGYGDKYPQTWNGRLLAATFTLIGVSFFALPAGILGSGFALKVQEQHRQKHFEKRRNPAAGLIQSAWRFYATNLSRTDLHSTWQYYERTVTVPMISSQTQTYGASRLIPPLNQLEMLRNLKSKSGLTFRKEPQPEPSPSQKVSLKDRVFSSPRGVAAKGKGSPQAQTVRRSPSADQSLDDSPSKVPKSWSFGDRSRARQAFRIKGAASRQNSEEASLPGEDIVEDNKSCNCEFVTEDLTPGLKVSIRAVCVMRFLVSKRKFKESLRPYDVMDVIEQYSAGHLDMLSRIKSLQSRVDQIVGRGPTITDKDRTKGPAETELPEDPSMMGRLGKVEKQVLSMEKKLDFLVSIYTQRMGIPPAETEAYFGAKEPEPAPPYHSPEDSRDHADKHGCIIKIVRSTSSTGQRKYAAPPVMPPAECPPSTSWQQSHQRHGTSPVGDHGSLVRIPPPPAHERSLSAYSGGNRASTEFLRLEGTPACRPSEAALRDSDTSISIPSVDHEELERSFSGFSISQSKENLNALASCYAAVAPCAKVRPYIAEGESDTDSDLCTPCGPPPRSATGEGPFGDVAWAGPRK

[6] = target: Hepatocyte nuclear factor 4-alpha (Homo sapiens, UniProt P41235); format: functional, cell-based;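 further: biochemical luminescence-based dose-response counterscreen measuring inhibition of HNF4 dimerization, run alongside a screen for blockers of ABHD5–perilipin-5 interaction; split luciferase complementation of HNF4 fusion proteins in cell lysate measuring dimerization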
Sequence of Hepatocyte nuclear factor 4-alpha (P41235 whole entry, the tested form may be a part): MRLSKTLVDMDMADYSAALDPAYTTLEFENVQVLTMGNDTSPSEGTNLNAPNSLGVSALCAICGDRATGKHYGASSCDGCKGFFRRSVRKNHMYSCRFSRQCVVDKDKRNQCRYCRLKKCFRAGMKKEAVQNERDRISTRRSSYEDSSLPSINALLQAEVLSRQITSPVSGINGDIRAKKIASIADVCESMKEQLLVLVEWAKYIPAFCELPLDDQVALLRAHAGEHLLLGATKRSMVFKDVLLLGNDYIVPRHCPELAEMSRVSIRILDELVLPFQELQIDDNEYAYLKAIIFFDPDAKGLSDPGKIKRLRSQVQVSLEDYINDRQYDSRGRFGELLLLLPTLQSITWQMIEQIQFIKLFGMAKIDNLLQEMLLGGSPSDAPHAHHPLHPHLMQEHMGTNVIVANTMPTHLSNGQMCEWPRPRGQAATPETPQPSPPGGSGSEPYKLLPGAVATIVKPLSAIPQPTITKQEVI

[7] = target: T2, Protein RecA (Mycobacterium tuberculosis, UniProt P9WHJ3); assay: Fluorescence Cell-Free Homogeneous Dose Retest to Identify Inhibitors of RecA-Intein Splicing Activity. [Related pubchem assays (depositor defined):AID2097, AID2223, AID489010, AID492950]; format: functional
T2 sequence (P9WHJ3 whole entry): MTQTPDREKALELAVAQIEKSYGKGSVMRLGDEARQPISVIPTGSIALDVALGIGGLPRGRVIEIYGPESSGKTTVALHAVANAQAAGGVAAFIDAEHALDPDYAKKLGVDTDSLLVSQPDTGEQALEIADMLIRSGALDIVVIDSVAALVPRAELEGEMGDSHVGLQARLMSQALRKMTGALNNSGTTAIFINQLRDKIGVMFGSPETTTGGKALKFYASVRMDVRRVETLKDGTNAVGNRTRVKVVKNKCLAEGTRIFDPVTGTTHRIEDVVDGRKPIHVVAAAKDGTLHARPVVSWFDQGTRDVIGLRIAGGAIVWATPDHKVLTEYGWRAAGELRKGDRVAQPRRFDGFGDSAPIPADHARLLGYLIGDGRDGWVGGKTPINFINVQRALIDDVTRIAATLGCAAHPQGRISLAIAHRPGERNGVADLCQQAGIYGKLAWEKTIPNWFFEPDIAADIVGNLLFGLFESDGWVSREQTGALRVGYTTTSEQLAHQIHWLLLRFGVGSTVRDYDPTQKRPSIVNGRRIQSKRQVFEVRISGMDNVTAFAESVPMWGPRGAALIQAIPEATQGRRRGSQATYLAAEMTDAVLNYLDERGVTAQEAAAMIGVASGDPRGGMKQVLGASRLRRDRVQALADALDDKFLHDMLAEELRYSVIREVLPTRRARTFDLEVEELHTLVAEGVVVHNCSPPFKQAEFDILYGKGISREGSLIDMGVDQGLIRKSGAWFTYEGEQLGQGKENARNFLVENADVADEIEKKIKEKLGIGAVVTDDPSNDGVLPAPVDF

[8] = target: T3, High affinity choline transporter 1 (Homo sapiens, UniProt Q9GZV3); assay: CHT inhibitors, dose response, cell-based, 5-point CRC, membrane potential dye (AID 504840); format: functional
T3 sequence (Q9GZV3 whole entry): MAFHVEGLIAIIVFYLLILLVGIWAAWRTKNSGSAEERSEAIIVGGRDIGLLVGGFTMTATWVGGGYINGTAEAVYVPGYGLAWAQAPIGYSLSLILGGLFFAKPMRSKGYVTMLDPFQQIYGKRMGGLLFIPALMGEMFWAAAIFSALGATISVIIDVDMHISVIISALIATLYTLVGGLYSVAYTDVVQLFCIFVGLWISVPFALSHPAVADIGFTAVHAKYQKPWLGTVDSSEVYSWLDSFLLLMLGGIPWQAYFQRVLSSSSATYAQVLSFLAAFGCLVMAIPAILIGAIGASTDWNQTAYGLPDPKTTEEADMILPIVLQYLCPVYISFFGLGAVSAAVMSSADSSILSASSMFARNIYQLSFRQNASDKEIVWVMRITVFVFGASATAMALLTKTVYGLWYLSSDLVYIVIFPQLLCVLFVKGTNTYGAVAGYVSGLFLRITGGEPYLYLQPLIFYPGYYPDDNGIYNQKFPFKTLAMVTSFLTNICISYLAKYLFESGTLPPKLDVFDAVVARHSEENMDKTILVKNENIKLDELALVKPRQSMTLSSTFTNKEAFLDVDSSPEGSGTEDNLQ

[9] = Luminescence Cell-Based Dose Confirmation HTS to Identify Activators of 5'UTR Stem-Loop Driven Alpha-Synuclein mRNA Translation in H4 Neuroglioblastoma Cells. [Related pubchem assays: 1829 (Project Summary), 1814 (Primary HTS)]; format: functional
[10] = target: T3, High affinity choline transporter 1; assay: CHT inhibitors, dose response, cell-based, 10-point CRC, membrane potential dye (AID 588401); format: functional;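 further: membrane potential dye fluorescence of choline-evoked depolarization via CHT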
[11] = Shn3 3'UTR reporter inhibitors, dose response, cell-based, Clone20 osteoblasts, firefly luciferase, cherry-picked (AID 624132); format: functional;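 further: firefly luciferase luminescence from reporter carrying the Shn3 3'UTR in osteoblasts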
[12] = Luminescence Cell-Based Dose Response HTS to Identify Activators of Luciferase Translation or Activity in H4 […] Cells. [Related pubchem assays: 1829 (Project Summary), 1814 (Primary HTS)]; format: functional
[13] = tested on: H4; assay: Luminescence Cell-Based Dose Response HTS to Identify Activators of 5'UTR Stem-Loop Driven Prion Protein mRNA Translation in H4 Neuroglioblastoma Cells. [Related pubchem assays: 1829 (Project Summary), 1814 (Primary HTS)]; format: functional; conditions: Homo sapiens
[14] = tested on: BJ; assay: cytotoxicity toward BJ-TERT fibroblasts, dose response, cell-based, RAS-independent, luminescence (AID 1933); format: functional; conditions: Homo sapiens
[15] = cytotoxicity toward DRD oncogenic fibroblasts, dose response, cell-based, non-viral oncogenic, luminescence (AID 1934); format: functional; conditions: Homo sapiens
[16] = tested on: BJ; assay: cells; format: functional, cell-based; conditions: Homo sapiens
[17] = tested on: BJ; assay: cytotoxicity toward BJ-TERT-LT-ST fibroblasts, dose response, cell-based, RAS-independent, luminescence (AID 1935); format: functional; conditions: Homo sapiens;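 further: BJ fibroblasts immortalized with TERT plus LT and ST oncogenes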
[18] = Luminescence-based dose response cell-based high throughput screening assay for cytotoxic compounds using the IEC-6 intestinal epithelial cell line. [Related pubchem assays: 1858 (Summary AID.), 1825 (Counterscreen.), 1907 (Confirmation screen.)]; format: functional
[19] = target: T4, Estrogen receptor (Homo sapiens, UniProt P03372); assay: potentiators of ERα–SRC-1 coactivator binding, dose response, biochemical, TR-FRET, ERα LBD (AID 737)
T4 sequence (P03372 whole entry): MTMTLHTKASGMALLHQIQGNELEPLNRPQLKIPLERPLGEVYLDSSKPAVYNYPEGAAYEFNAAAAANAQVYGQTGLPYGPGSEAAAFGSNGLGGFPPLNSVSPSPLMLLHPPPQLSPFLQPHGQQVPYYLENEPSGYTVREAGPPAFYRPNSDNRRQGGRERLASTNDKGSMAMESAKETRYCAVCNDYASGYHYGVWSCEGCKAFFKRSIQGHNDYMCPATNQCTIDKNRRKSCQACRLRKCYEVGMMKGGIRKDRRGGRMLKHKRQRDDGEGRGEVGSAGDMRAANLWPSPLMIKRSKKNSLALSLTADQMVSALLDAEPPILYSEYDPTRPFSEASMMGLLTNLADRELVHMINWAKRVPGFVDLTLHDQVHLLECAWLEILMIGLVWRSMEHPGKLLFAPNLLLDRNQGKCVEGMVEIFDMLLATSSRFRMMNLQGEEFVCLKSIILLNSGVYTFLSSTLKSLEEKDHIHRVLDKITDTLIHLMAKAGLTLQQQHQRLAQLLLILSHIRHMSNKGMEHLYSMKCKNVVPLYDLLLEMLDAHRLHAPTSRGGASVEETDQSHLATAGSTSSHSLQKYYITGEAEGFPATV

[20] = target: Protein-tyrosine kinase 2-beta (Homo sapiens, UniProt Q14289);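 further: potency of inhibitors of PYK2 kinase phosphorylation of poly-GT substrate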
Sequence of Protein-tyrosine kinase 2-beta (Q14289 whole entry): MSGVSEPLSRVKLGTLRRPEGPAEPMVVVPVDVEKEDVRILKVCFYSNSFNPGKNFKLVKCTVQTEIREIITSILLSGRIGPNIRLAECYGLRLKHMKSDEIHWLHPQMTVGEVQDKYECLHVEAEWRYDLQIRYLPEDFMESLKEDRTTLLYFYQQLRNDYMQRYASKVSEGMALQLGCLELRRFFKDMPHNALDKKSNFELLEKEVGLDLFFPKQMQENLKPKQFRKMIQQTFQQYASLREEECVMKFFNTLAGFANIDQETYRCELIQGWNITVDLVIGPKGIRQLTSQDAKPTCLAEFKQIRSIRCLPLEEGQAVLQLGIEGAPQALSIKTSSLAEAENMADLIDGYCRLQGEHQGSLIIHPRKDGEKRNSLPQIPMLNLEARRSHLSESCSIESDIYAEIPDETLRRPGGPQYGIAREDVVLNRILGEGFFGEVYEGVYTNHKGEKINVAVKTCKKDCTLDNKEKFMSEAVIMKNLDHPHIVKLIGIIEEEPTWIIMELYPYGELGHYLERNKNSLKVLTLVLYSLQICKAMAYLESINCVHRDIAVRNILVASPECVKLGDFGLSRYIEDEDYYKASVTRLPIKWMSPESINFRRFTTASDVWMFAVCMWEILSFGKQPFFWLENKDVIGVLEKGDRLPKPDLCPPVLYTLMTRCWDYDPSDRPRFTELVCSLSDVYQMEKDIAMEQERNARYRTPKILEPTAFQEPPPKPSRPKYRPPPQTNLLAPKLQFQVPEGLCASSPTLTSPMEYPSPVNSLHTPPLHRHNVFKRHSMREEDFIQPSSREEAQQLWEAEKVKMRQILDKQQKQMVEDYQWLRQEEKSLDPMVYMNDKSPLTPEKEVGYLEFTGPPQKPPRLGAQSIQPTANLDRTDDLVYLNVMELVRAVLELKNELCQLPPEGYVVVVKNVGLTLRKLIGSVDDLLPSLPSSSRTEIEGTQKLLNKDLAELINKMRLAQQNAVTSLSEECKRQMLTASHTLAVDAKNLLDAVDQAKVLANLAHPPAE

[21] = target: Induced myeloid leukemia cell differentiation protein Mcl-1 (Homo sapiens, UniProt Q07820); assay: MCL1-BIM BH3 interaction inhibitors, dose response, biochemical, fluorescence polarization, BIM-BH3 peptide, 1536-well (AID 2217)
Sequence of Induced myeloid leukemia cell differentiation protein Mcl-1 (Q07820 whole entry): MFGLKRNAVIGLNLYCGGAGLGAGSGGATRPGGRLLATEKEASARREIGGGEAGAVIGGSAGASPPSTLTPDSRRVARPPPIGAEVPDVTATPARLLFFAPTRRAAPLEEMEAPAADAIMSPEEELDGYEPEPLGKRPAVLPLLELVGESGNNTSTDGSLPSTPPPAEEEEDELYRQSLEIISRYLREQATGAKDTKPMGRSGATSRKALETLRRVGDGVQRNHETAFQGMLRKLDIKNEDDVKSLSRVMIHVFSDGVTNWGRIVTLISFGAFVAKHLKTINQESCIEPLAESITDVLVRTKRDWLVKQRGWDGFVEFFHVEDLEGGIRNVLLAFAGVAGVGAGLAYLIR

[22] = target: Bcl-2-like protein 1 (Homo sapiens, UniProt Q07817); assay: BCL-XL inhibitors, dose response, selectivity assay for MCL1 inhibitor project, biochemical, fluorescence polarization, 1536-well (AID 2218)
Sequence of Bcl-2-like protein 1 (Q07817 whole entry): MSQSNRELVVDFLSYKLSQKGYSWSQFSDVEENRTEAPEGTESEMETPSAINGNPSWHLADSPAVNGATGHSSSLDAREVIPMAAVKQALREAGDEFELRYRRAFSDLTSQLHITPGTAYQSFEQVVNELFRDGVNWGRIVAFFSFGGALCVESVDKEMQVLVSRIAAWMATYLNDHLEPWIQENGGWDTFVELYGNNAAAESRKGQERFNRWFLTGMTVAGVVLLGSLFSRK

[23] = THP-1 cell cytotoxicity, dose response, cytotoxicity control for non-replicating M. tuberculosis project (AID 489025); format: functional
[24] = target: Sphingosine 1-phosphate receptor 2 (Homo sapiens, UniProt O95136); assay: Dose Response Cell Based Assay for Antagonists of the S1P2 Receptor. [Related pubchem assays: 856, 736 ]; format: functional
Sequence of Sphingosine 1-phosphate receptor 2 (O95136 whole entry): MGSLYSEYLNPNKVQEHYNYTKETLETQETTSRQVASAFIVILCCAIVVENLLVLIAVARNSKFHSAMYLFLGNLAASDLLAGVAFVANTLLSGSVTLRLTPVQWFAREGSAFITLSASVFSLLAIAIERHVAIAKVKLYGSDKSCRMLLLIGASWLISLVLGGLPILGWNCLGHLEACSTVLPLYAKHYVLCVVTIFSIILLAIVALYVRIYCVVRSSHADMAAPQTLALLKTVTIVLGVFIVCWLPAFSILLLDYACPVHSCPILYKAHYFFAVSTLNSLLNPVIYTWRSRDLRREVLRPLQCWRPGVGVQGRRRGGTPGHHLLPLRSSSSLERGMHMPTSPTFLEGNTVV

[25] = cells; format: functional
[26] = tested on: BJ; assay: cytotoxicity toward Ras-transformed BJeLR fibroblasts, dose response, cell-based, alamar blue fluorescence, cherrypicked samples (AID 2631); format: functional; conditions: Homo sapiens;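 further: confirmatory dose-response assay in RAS-dependent BJ fibroblasts engineered with TERT, LT and ST, with cytotoxicity read by fluorescence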
[27] = target: Nonstructural protein 1 (Influenza A virus, UniProt Q194T2); format: functional, Influenza A virus (A/California/07/2009(H1N1))
Sequence of Nonstructural protein 1 (Q194T2 whole entry): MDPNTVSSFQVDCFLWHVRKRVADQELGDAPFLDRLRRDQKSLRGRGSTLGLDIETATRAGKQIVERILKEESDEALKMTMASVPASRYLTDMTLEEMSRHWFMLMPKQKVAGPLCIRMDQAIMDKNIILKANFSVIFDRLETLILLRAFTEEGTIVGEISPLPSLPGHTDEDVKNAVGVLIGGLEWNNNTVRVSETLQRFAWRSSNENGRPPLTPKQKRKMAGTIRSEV

[28] = tested on: INS1; assay: beta cell apoptosis inhibitors, cytokine rescue, dose response, luminescence, retest (AID 449756); format: functional, cell-based; conditions: Rattus norvegicus;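 further: cell death triggered by IL-1 beta plus TNF-alpha plus IFN-gamma mixture; protective hits raise ATP signal compared with cytokine alone wells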
[29] = target: T5, Mannose-6-phosphate isomerase (Homo sapiens, UniProt P34949); assay: inhibitors of human PMI, primary screen, biochemical, fluorescence intensity, coupled assay (AID 1209)
T5 sequence (P34949 whole entry): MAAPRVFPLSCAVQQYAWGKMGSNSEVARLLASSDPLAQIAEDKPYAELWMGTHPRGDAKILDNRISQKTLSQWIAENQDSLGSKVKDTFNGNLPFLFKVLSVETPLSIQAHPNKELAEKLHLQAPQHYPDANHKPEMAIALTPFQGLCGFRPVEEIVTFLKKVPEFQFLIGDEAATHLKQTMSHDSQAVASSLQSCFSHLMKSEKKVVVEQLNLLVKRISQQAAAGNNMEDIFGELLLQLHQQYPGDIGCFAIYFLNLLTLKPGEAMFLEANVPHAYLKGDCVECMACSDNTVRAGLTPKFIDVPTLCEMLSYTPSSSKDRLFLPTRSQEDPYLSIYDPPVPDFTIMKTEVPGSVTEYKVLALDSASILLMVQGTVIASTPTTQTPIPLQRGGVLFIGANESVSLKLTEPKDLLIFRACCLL

[30] = Vero E6 cell cytotoxicity, dose response, cytotoxicity control for non-replicating M. tuberculosis project, secondary assay (AID 492998); format: functional, VeroE6; conditions: Vero C1008

Sequence of Genome polyprotein (P29990 2492-3391 limits assumed): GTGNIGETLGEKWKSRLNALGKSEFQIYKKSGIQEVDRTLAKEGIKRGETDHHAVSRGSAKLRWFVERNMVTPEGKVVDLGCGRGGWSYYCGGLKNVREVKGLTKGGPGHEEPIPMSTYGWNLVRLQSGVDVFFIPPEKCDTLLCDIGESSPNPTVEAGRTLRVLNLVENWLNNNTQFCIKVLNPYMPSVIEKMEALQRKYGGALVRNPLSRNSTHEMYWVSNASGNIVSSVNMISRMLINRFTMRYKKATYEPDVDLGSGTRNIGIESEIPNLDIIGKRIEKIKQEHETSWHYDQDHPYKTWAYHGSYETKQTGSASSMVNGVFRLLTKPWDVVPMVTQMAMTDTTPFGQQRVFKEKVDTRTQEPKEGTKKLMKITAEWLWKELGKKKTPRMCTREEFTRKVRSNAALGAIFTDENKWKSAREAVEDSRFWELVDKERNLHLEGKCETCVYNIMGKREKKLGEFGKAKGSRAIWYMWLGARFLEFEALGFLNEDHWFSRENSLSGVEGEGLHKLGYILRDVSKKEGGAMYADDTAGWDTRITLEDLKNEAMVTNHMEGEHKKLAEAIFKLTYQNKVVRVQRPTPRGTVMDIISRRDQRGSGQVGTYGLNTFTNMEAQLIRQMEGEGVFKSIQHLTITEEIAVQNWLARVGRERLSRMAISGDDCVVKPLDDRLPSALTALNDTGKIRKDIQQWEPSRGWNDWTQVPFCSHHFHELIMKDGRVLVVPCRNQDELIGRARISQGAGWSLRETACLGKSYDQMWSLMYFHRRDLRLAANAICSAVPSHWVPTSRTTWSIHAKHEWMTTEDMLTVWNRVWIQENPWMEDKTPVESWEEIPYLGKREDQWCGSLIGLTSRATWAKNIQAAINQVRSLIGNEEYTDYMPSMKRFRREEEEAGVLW

With CCc1nnc(NC(=O)c2nc(S(=O)(=O)Cc3cccc(C)c3)ncc2Cl)s1 the IC50 [1] was > 100 µM (active), the CC50 [2] was 26.6 µM (active) and the AC50 [3] was 5.05 µM (active). The AC50 [4] was 6.99 µM (active), the EC50 [5] was 16.8 µM (active) and the IC50 [6] was 5.05 µM (active). For the same molecule, the EC50 [7] was 4.37 µM (active), the IC50 [8] was 2.4 µM (active) and the EC50 [9] was > 120 µM (not active). For the same molecule, the IC50 [10] was 2.82 µM (active), the AC50 [11] was 2.51 µM (active) and the EC50 [12] was > 120 µM (not active). The EC50 [13] was > 120 µM (not active).
With CCCNc1nc(-c2ccccc2)c(C(=O)OCC)cc1C#N the EC50 [14] was 8.98 µM (inconclusive), the EC50 [15] was 16.3 µM (active) and the EC50 [16] was 26 µM (active). For the same molecule, the EC50 [17] was 4.54 µM (inconclusive) and the IC50 [18] was 4.2 µM (active).
In the case of O=C(Oc1ccc(-c2cnc3ccccc3n2)cc1)c1ccc(Br)o1, the EC50 [19] is reported as 6.97 µM (active) and the IC50 [20] is reported as > 69.5 µM (not active).
In the case of O=C(O)C(C(=O)/C=C/c1ccco1)=C1SCCS1, the IC50 [21] is reported as 21.9 µM (not active) and the IC50 [22] is reported as > 109 µM (not active).
For CC1=C(C)/C(=N\OS(=O)(=O)c2ccccc2)C=CC1=O, the EC50 [14] was 2.78 µM (inconclusive), the CC50 [23] was 12.1 µM (active) and the IC50 [24] was 4.33 µM (active). For the same molecule, the AC50 [3] was 87.4 µM (active), the EC50 [15] was 4.57 µM (active) and the IC50 [25] was 11.4 µM (active). For the same molecule, the EC50 [26] was 0.557 µM (inconclusive), the IC50 [27] was > 100 µM (active) and the EC50 [16] was 2.92 µM (active). The AC50 [28] was 1.92 µM (active), the IC50 [29] was 6.61 µM (active) and the CC50 [30] was > 20 µM (active). The EC50 [7] was 7.72 µM (active), the EC50 [17] was 4.32 µM (inconclusive) and the EC50 [9] was > 120 µM (not active). The EC50 [12] was > 120 µM (not active) and the EC50 [13] was > 120 µM (not active).

Reference: ChEMBL document CHEMBL1201862, “PubChem BioAssay data set” (2004)
